Data from ChEMBL document CHEMBL1155757, “Cytotoxicity of Ganoderma lucidum triterpenes” (J Nat Prod, 2001).

Legend:
Format in all cases: functional, cell-based
[1] = Cytotoxicity against human HepG2(2.2.15) cells
[2] = test system: KB; assay: Cytotoxicity against human KB cells
[3] = Cytotoxicity against human CCM2 cells
[4] = test system: HepG2; assay: Cytotoxicity against human HepG2 cells
[5] = test system: P388; assay: Cytotoxicity against mouse P388 cells

Compound	IC50 [1] [nM]	IC50 [2] [nM]	IC50 [3] [nM]	IC50 [4] [nM]	IC50 [5] [nM]
C[C@H](CCC(=O)O)[C@H]1CC(=O)[C@@]2(C)C3=C(C(=O)C[C@]12C)[C@@]1(C)CC[C@H](O)C(C)(C)[C@@H]1C[C@@H]3O [LUCIDENIC ACID N]	1.66	26700	35500	0.206	12
C[C@H](CC(=O)C[C@@H](C)[C@H]1CC(=O)[C@@]2(C)C3=C(C(=O)C[C@]12C)[C@@]1(C)CCC(=O)C(C)(C)[C@@H]1CC3=O)C(=O)O [GANODERIC ACID E]	0.105	–	31200	0.144	5010
C[C@H](CCC(=O)O)[C@H]1CC(=O)[C@@]2(C)C3=C(C(=O)C[C@]12C)[C@@]1(C)CCC(=O)C(C)(C)[C@@H]1C[C@@H]3O [LUCIDENIC ACID A]	0.205	17000	27500	0.164	17
